Assay results published in ChEMBL document CHEMBL1201862, “PubChem BioAssay data set” (2004).
Activity calls are given as the source filed them.

Legend:
[1] = test system: Streptococcus sp. 'group A'; assay: growth inhibition of control SK(-) GAS strain, dose response, counter-screen for streptokinase expression inhibitor project, luminescence, kanamycin, BacTiterGlo, confirmation (AID 1900); assay type: functional, organism-based
Streptokinase A = molecular target: T1, Streptokinase A (Streptococcus pyogenes serotype M1, UniProt P10520); assay: S. pyogenes streptokinase expression inhibitors, potency, dose response, plasminogen activation absorbance, OD405 (AID 1914); assay type: functional, Streptococcus pyogenes M1 GAS;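 further: secreted streptokinase activity via plasminogen activation per viability signal from cell pellet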
T1 sequence (P10520 whole entry): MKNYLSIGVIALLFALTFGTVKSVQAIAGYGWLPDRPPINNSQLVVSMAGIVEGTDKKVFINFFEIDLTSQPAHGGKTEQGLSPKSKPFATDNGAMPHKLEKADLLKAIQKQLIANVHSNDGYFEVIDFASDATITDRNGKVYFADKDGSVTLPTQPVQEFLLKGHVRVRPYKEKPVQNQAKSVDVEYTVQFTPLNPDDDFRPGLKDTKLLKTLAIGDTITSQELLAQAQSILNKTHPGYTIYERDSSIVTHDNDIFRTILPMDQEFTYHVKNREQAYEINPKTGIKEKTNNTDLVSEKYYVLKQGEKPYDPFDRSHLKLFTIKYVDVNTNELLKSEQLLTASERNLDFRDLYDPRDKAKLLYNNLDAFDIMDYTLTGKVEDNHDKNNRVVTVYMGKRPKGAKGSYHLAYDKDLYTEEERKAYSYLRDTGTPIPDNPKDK

[2] = inhibitors of intracellular T. cruzi replication, confirmation, NIH3T3 host cells, beta-gal luminescence (AID 2044); assay type: functional, cell-based;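 further: intracellular parasites grown in NIH/3T3 mouse fibroblasts as host cells; luminescent beta-galactosidase reporter signal from transgenic T. cruzi replicating inside host cells; inhibitors lower the luminescence signal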
[3] = cytotoxicity toward NIH3T3 fibroblasts, dose response, counter-screen, cell-based, ATP luminescence, mouse fibroblasts (AID 2010); assay type: functional;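 further: cells exposed to compound for about 90 hours before reading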
Streptococcus = assay: Group A Streptococcus viability loss, dose response, counter-screen for streptokinase expression inhibitor project, luminescence, BacTiterGlo (AID 1915); assay type: functional, organism-based;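 further: potency for reduction of bacterial viability or growth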
[4] = molecular target: T2, Ubiquitin-conjugating enzyme E2 N (Homo sapiens, UniProt P61088); assay type: functional;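 further: Dose-response confirmation in a TR-FRET assay detecting UBC13-driven polyubiquitin chain formation, inhibition measured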
T2 sequence (P61088 whole entry): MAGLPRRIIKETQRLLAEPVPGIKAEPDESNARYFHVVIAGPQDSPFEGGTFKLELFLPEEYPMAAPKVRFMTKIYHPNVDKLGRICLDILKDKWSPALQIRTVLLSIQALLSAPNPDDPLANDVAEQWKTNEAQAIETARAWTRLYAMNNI

[5] = miR-122 activators in hepatoma reporter cells, dose response, cell-based, Huh7 psiCHECK-miR122, Renilla luciferase, cherry-picked (AID 651956); assay type: functional;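 further: huh7 hepatoma cells stably carrying a psiCHECK-2 miR-122 sensor plasmid; renilla luciferase signal reporting endogenous miR-122 activity after 48 h compound exposure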
[6] = Fluorescence-based cell-based high throughput dose response assay for inhibitors of the interaction of nucleotide-binding oligomerization domain containing 2 (NOD2) and the receptor-interacting serine-threonine kinase 2 (RIPK2).; assay type: functional; conditions: Homo sapiens
Beta Lactamase = Beta Lactamase (Pseudomonas aeruginosa, UniProt Q932Y6); assay: beta-lactamase reporter inhibitor potency, dose response, artefact control for NOD2-RIPK2 interaction inhibitor project, BLA reporter cells, FRET fluorescence (AID 651552); assay type: functional, cell-based
Beta Lactamase, sequence (Q932Y6 whole entry): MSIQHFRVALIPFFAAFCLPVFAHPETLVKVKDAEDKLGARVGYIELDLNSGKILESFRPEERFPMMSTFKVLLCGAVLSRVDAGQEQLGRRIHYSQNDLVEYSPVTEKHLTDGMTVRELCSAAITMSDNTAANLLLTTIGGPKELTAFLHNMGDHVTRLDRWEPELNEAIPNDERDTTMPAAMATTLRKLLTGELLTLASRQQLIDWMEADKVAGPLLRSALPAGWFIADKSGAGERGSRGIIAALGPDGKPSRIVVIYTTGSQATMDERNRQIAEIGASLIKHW

[7] = molecular target: T3, DNA repair protein RAD52 homolog (Homo sapiens, UniProt P43351); assay type: functional, biochemical
T3 sequence (P43351 whole entry): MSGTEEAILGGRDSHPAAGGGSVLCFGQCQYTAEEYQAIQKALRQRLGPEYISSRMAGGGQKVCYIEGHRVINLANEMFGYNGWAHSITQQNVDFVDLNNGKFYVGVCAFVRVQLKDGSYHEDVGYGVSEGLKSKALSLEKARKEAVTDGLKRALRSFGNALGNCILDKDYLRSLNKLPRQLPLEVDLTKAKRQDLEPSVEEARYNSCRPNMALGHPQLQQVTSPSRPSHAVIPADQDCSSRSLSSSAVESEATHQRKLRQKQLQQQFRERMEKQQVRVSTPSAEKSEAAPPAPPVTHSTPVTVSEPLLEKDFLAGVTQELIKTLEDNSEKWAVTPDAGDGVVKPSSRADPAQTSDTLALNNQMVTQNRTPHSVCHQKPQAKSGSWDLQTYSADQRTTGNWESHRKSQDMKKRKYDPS

Paired box protein Pax-8 = Paired box protein Pax-8 (Homo sapiens, UniProt Q06710); assay: inhibitors of PAX8-driven TPO luciferase reporter, dose response, RMG-I cells, cherry-pick (AID 687027); assay type: functional, cell-based;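 further: luciferase reporter driven by Pax8 target thyroperoxidase promoter measured by SteadyGlo luminescence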
Paired box protein Pax-8, sequence (Q06710 whole entry): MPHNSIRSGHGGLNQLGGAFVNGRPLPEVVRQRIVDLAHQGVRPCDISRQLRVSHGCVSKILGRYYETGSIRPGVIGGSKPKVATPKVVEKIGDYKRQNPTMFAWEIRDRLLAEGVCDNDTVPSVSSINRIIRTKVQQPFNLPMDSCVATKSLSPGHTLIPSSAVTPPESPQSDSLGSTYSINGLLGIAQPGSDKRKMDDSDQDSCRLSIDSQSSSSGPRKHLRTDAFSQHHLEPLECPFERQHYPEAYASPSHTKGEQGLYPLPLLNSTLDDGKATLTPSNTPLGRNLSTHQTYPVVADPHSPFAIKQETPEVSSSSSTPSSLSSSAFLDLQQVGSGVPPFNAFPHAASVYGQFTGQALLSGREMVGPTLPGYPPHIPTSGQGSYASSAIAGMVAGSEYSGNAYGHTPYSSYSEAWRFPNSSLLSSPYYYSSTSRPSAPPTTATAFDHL

[8] = non-specific cell cytotoxicity, dose response, cytotoxicity control for PAX8 inhibitor project, plate reader, dry powder samples (AID 743021); assay type: functional, cell-based
[9] = molecular target: Fructose-bisphosphate aldolase (Mycobacterium tuberculosis, UniProt P9WQA3); assay: Fluorescence-based biochemical high throughput dose response assay for inhibitors of the fructose-bisphosphate aldolase (FBA) of M. tuberculosis.; assay type: functional
Fructose-bisphosphate aldolase, sequence (P9WQA3 whole entry): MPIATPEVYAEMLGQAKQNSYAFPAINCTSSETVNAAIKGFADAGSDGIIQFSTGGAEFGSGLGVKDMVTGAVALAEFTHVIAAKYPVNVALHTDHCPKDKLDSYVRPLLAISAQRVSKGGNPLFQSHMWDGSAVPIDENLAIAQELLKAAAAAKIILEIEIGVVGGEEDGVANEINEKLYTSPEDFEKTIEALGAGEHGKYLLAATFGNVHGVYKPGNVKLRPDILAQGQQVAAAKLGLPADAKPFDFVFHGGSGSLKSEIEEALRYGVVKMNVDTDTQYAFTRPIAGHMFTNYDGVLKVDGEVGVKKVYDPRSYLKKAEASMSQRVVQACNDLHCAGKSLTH

[10] = T. cruzi growth inhibition in host cells, dose response, cell-based, plate reader, dry powder, set 2 (AID 652275); assay type: functional
Protein Wnt-3a = Protein Wnt-3a (Mus musculus, UniProt P27467); assay: SAR analysis of small molecule antagonists of Gli-SUFU in a Wnt3a luminescent reporter assay.; assay type: functional
Protein Wnt-3a, sequence (P27467 whole entry): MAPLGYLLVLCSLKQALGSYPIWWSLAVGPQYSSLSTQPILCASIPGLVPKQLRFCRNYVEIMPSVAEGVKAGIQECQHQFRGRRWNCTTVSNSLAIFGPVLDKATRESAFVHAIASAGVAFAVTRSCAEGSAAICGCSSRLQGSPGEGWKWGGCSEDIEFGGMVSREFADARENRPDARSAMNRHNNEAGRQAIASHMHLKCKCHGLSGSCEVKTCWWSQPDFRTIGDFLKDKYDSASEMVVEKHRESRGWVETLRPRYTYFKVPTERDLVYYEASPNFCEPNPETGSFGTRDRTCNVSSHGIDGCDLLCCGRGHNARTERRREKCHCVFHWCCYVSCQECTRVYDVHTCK

[11] = molecular target: T4, Microphthalmia-associated transcription factor (Homo sapiens, UniProt O75030); assay: TRPM1 promoter luciferase signal decrease, dose response, MITF inhibitor project, cell-based, SK-MEL-5, cherry-picked, set 3 (AID 493073); assay type: functional
T4 sequence (O75030 whole entry): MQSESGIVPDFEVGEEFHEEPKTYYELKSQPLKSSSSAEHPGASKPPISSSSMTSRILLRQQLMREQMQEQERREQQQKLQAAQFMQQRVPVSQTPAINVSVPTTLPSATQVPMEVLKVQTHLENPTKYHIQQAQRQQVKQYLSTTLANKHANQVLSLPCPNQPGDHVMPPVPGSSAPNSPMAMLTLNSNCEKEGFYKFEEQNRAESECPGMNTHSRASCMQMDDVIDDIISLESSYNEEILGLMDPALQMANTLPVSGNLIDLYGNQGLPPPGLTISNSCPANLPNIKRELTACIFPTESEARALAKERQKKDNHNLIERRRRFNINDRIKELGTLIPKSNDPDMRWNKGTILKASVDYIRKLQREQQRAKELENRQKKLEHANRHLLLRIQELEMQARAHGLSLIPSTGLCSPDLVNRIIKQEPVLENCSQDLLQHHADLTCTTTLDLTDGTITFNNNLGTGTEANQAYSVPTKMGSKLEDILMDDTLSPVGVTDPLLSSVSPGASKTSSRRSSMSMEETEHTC

[12] = molecular target: Nuclear receptor subfamily 5 group A member 2 (Homo sapiens, UniProt O00482); assay type: functional, cell-based;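 further: HEK293T cells transfected with LRH-1 and a StAR promoter luciferase reporter; potency for inhibitors that lower LRH-1 driven reporter light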
Nuclear receptor subfamily 5 group A member 2, sequence (O00482 whole entry): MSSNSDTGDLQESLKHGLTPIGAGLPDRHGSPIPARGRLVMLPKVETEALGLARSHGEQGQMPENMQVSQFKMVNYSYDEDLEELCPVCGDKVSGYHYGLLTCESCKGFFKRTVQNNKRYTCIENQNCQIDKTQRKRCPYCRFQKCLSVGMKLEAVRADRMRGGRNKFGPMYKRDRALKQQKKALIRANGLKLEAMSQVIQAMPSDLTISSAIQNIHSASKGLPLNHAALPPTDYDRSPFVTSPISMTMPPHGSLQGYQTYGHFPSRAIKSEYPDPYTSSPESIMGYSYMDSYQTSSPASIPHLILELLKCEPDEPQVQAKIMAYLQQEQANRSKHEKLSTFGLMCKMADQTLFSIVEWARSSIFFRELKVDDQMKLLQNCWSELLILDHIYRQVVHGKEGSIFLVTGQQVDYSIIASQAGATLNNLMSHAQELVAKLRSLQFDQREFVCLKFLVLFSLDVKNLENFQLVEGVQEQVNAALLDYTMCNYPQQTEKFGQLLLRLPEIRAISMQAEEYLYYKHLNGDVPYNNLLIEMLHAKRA

Steroidogenic factor 1 = Steroidogenic factor 1 (Homo sapiens, UniProt Q13285); assay: Counterscreen for inverse agonists of the liver receptor homolog-1 (LRH-1; NR5A2): Luminescence-based cell-based high throughput dose response assay to identify inverse agonists of the Steroidogenic Factor 1 Nuclear Receptor (SF1; NR5A1).; assay type: functional
Steroidogenic factor 1, sequence (Q13285 whole entry): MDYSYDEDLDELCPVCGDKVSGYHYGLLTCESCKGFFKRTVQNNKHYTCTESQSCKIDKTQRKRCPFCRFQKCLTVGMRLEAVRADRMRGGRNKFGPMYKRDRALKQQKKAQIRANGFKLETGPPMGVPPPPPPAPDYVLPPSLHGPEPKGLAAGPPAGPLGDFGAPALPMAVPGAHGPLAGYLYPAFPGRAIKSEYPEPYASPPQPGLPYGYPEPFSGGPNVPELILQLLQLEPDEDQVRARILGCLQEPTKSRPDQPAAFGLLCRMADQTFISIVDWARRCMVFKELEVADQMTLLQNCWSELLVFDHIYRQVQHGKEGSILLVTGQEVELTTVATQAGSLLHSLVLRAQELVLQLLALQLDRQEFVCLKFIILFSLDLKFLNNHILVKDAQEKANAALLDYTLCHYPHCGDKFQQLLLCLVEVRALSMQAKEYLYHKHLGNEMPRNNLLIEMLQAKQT

[13] = StAR promoter reporter inhibition counter-screen, dose response, counter-screen for LRH-1 inverse agonist project, cell-based, luminescence, luciferase reporter (AID 651969); assay type: functional
[14] = molecular target: Dual specificity tyrosine-phosphorylation-regulated kinase 1A (Rattus norvegicus, UniProt Q63470); assay type: biochemical, Homo sapiens

With `CC(C)(C)c1cc(NCCCn2ccnc2)n2ncc(-c3ccc(Cl)cc3)c2n1` the EC50 [1] was 1.91 µM (active), the EC50 (Streptokinase A) was > 150 µM (not active) and the EC50 [2] was 1.49 µM (active). For the same molecule, the EC50 [3] was 5.5 µM (active), the EC50 (Streptococcus) was 6.12 µM (active) and the IC50 [4] was > 20 µM (inactive). For the same molecule, the AC50 [5] was 1.45 µM (active).

In the case of `CCSc1ccc(-c2cc(NC=O)c3ncc(-c4cccc(C(=O)NCCN(C)C)c4)n3c2)cc1`, the IC50 [6] is reported as 11.8 µM (inactive), the IC50 (Beta Lactamase) is reported as 20 µM (inactive) and the AC50 [7] is reported as 1.14 µM (active). The AC50 (Paired box protein Pax-8) was 9.88 µM (active) and the AC50 [8] was 53.9 µM (active).

For `CC(=O)NCCNC(=O)C1Cc2c(-c3ccc4c(c3)OCO4)ccnc2O1` (centres undefined), the IC50 [9] was 1.73 µM (active).

In the case of `C[C@H]1CN([C@@H](C)CO)C(=O)c2cccc(NC(=O)c3ccncc3)c2O[C@@H]1CN(C)Cc1ccc(F)c(F)c1`, the AC50 [10] is reported as 0.0246 µM (active).

In the case of `O=C(Nc1cc(N2CCCCC2)ncn1)c1cccc2ccccc12`, the IC50 (Protein Wnt-3a) is reported as > 21.8 µM (inactive).

For `CC1CCCCN1c1cc(NC(=O)c2ccccc2)ncn1` (centres undefined), the IC50 (Protein Wnt-3a) was > 21.8 µM (inactive).

For `Cc1ccccc1OCC(=O)N/N=C/c1ccc([N+](=O)[O-])o1`, the EC50 [2] was 0.151 µM (active), the EC50 [3] was > 30 µM (not active) and the AC50 [11] was 8.22 µM (active). For the same molecule, the IC50 [12] was 10.6 µM (inactive), the IC50 (Steroidogenic factor 1) was 6.24 µM (active) and the IC50 [13] was 29.9 µM (inactive).

With `CC1(C)C=Cc2cc3ccc(=O)oc3cc2O1` [XANTHYLETIN] the AC50 [14] was 8.65 µM (active) and the IC50 [9] was > 1.11 µM (active).
